Data set [1] is described as follows: Pharmacokinetics in male Han Wistar rats, intravenous and oral. The format is in vivo. Conditions: rat; for AUC(0-inf) / AUC(0-t) / clearance / Vd / half-life / Cmax / Tmax / bioavailability: male, Han Wistar, plasma; for clearance: read-out: CLp* (converted); for Vd: read-out: Vss*; for half-life: read-out: t½* (converted); for bioavailability: po. How it is done:
Determination of PK of the Invention Compounds
The pharmacokinetics of compounds E10, E16, E34, E38, E51, were studied in male Han Wistar rats. The rats were treated intravenously and orally (n=3 for each dose route) with a compounds formulated as solutions. The rats were fitted with a jugular cannula for serial sampling. A full profile was acquired for each rat. Plasma extracts were quantitatively analyzed using a specific and sensitive LC-MS/MS bioanalytical method. Inter-individual variations between the three rats in each group were limited (CV for pharmacokinetic parameters was below 50%).

The target in data set [2] is T1, human EP4 receptor (Homo sapiens, UniProt P35408).
T1 construct: expressed in transfected cells; membrane fraction used
Put plainly: [3H]-Prostaglandin E2 membrane binding assay (human EP4/HEK293 transfectant membranes). The note with it: [3H]-PGE2 1 nM, hEP4/HEK293 membranes; Ki by Cheng-Prusoff; read-out: Binding pKi (converted). In outline: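 HEK293 membranes stably expressing human EP4 (10 µg protein) incubated with 1 nM [3H]-PGE2 in 10 mM MES-KOH pH 6, 10 mM MgCl2, 1 mM CaCl2, 90 min at room temperature; nonspecific binding with 1 µM PGE2. Filtration, scintillation counting; Ki via Cheng-Prusoff, reported as pKi; compounds tested 1 nM–1 µM.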

The target of data set [3] is T1, human EP4 receptor. Put plainly: cAMP assay (AlphaScreen) on human EP4 membrane of transfected cells, antagonism of PGE2. Conditions: HEK293 hEP4 cell membrane stimulated with PGE2 3 nM; read-out: functional IC50. It counts as biochemical. In outline: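 Membranes of HEK293 cells stably expressing human EP4 (1 μg/well) in HBSS/IBMX 0.5 mM/GTP/GDP/ATP buffer, pH 7.4, preincubated 30 min at 22-23 °C with compound plus PGE2 3 nM. cAMP quantified by AlphaScreen competition with biotinylated cAMP after 1 h. IC50 from cAMP standard curve by linear regression.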

The mark [4] stands for this setting: 2 mg/kg, PO, 2.0 mg/kg, read-out: F %.
Setting [5] is: 1 mg/kg, PO, 1.0 mg/kg, read-out: F %.

Structures are written as SMILES. Where two headings read alike, the source gives them in different places.

T1 sequence (P35408 whole entry): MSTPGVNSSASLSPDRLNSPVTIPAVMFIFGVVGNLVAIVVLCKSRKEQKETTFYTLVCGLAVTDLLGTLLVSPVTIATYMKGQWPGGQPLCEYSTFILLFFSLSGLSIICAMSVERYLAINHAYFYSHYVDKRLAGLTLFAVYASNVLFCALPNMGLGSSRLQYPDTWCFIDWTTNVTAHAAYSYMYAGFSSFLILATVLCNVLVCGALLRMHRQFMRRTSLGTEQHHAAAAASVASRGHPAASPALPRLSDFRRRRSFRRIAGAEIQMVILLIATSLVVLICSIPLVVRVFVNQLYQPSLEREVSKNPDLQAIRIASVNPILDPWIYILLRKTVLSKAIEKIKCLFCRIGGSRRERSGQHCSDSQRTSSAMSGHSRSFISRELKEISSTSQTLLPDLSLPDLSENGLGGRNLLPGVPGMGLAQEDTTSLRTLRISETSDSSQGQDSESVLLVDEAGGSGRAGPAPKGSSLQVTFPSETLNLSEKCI

For the compound `O=C(O)c1ccc(C2(NC(=O)c3cc(Cl)cnc3N3CC(Oc4ccccc4)C3)CC2)cc1` [E 10, 4-(1-(5-chloro-2-(3-phenoxyazetidin-1-yl)nicotinamido)cyclopropyl)benzoic acid], in data set [1] (IV, 2.0 mg/kg), the AUC(0-inf) was 3150 ng·h/mL, the AUC(0-t) stood at 3090 ng·h/mL, the clearance is 2.68 mL/min and the Vd worked out at 0.307 L. Besides, in data set [1] (IV, 2.0 mg/kg), the half-life was 3.96 h and the Tlast is given as 24 h. In data set [1] (PO, 2.0 mg/kg), the AUC(0-inf) was 1820 ng·h/mL, the AUC(0-t) was 1720 ng·h/mL, the Cmax was 923 ng/mL and the Tmax was 0.25 h. In data set [1] (PO, 2.0 mg/kg), the half-life is 4.85 h and the Tlast is reported as 24 h. For the same compound, the bioavailability in data set [1] (setting [4]) is 56%. Moreover, the Ki at human EP4 receptor [2] was 15.8 nM. For the same compound, the IC50 at human EP4 receptor [3] is 46 nM.
With `O=C(O)c1ccc(C2(NC(=O)c3cc(C(F)(F)F)cnc3N3CC(Oc4cccc(F)c4)C3)CC2)cc1` [E 38, 4-(1-(2-(3-(3-fluorophenoxy)azetidin-1-yl)-5-(trifluoromethyl)nicotinamido)cyclopropyl)benzoic acid], in data set [1] (IV, 1.0 mg/kg), the AUC(0-inf) amounted to 832 ng·h/mL, the AUC(0-t) is 816 ng·h/mL, the clearance is 5.68 mL/min and the Vd came to 1.07 L. Moreover, in data set [1] (IV, 1.0 mg/kg), the half-life was 5.9 h and the Tlast was found to be 24 h. In data set [1] (PO, 1.0 mg/kg), the AUC(0-inf) was 598 ng·h/mL, the AUC(0-t) turned out to be 551 ng·h/mL, the Cmax came to 374 ng/mL and the Tmax was found to be 0.25 h. In addition, in data set [1] (PO, 1.0 mg/kg), the half-life is 2.59 h and the Tlast was 6 h. Besides, in data set [1] (setting [5]), the bioavailability was found to be 59%. The Ki at human EP4 receptor [2] was 12.6 nM. Moreover, the IC50 on human EP4 receptor [3] stood at 19.3 nM.
Take `Cc1cc(F)ccc1NC1CN(c2ncc(C(F)(F)F)cc2C(=O)NC2(c3ccc(C(=O)O)cc3)CC2)C1` [E 51, 4-(1-(2-(3-((4-fluoro-2-methylphenyl)amino)azetidin-1-yl)-5-(trifluoromethyl)nicotinamido)cyclopropyl)benzoic acid]: in data set [1] (IV, 1.0 mg/kg), the AUC(0-inf) was found to be 389 ng·h/mL, the AUC(0-t) came out at 385 ng·h/mL, the clearance was 11.2 mL/min and the Vd amounted to 0.447 L. For the same compound, in data set [1] (IV, 1.0 mg/kg), the half-life was 1.12 h and the Tlast is recorded as 6 h. For the same compound, in data set [1] (PO, 1.0 mg/kg), the AUC(0-inf) came out at 231 ng·h/mL, the AUC(0-t) amounted to 225 ng·h/mL, the maximum concentration (Cmax) came out at 151 ng/mL and the Tmax is 0.25 h. For the same compound, in data set [1] (PO, 1.0 mg/kg), the half-life was 1.14 h and the Tlast is on record as 6 h. In data set [1] (setting [5]), the bioavailability is 58%. For the same compound, the Ki on human EP4 receptor [2] was 6.31 nM. Moreover, at human EP4 receptor [3], the 50% inhibitory concentration (IC50) was 28 nM.
In the case of `O=C(O)c1ccc(C2(NC(=O)c3cc(Cl)cnc3N3CC(Oc4cccc(F)c4)C3)CC2)cc1` [E 16, 4-(1-(5-chloro-2-(3-(3-fluorophenoxy)azetidin-1-yl)nicotinamido)cyclopropyl)benzoic acid], in data set [1] (IV, 2.0 mg/kg), the AUC(0-inf) was 3330 ng·h/mL, the AUC(0-t) was 3290 ng·h/mL, the clearance was 2.67 mL/min and the Vd was found to be 0.394 L. Also, in data set [1] (IV, 2.0 mg/kg), the half-life is 5.62 h and the Tlast was 24 h. In data set [1] (PO, 2.0 mg/kg), the AUC(0-inf) amounted to 3000 ng·h/mL, the AUC(0-t) worked out at 2990 ng·h/mL, the Cmax is 1800 ng/mL and the Tmax amounted to 0.25 h. For the same compound, in data set [1] (PO, 2.0 mg/kg), the half-life was 3.12 h and the Tlast is recorded as 24 h. Besides, the bioavailability in data set [1] (setting [4]) came to 91%. Also, the bioavailability in data set [1] (2 mg/kg, after oral administration, read-out: absolute oral bioavailability F) is 90%. For the same compound, at human EP4 receptor [2], the Ki is 3.16 nM. The IC50 on human EP4 receptor [3] turned out to be 40 nM.

The record behind these values is US8828987B2, “Pyridine amide derivatives as EP4 receptor antagonists” (Rottapharm Biotech S.R.L., priority 2010, dated 2014).
